These results are taken from patent US5478946A, “Guanidino compounds as regulators of nitric oxide synthase” (Abbott Laboratories, priority 1993, dated 1995).

For assay [1], the target named is T1, Type III NOS (BAE homogenate preparation) (Bos taurus, UniProt P29473).
T1 construct: partially purified isozyme III from bovine aortic endothelial cells (BAE cells); endogenous in cells; host or cells: bovine aortic endothelial (BAE) cells
The experiment in a line: [3H]-Arginine to [3H]-Citrulline conversion, BAE homogenate preparation (Type III NOS). Type of assay: biochemical, bovine. To be noted: for inhibition at 100 µM: read-out: Percent Inhibition of [3H]-Citrulline Formation, BAE Preparation; for IC50: read-out: Inhibition of [3H]-Citrulline Formation IC50, BAE Preparation. An excerpt:
(§1) The enzyme NO synthase produces EDRF/NO and citrulline from L-arginine (Bredt and Snyder, Proc. Nat'l. Acad. Sci. USA, 1989, 87: 682-5). The enzymatic generation of EDRF/NO is monitored by measuring the conversion of [^3 H]-L-arginine to [^3 H]-L-citrulline. An inhibitor of this specific enzymatic reaction lowers the conversion rate and, thus, the amount of [^3 H]-L-citrulline produced. Likewise, a compound acting as a substrate would compete with L-arginine and thereby lower the conversion rate.
(§2) The conversion of L-arginine to L-citrulline was assayed as reported previously (Bredt and Snyder, Proc. Nat'l Acad Sci USA, 1989, 87: 682-5) with minor modifications. Briefly, samples of partially purified NO synthase, 50-100 μg of protein or 20 μL of cytosol (alternatively cytosolic preparations from RAW 264.7 cells, a murine monocyte-macrophage cell line, induced for 16 hours with 10 μg/mL medium of Lipopolysaccharide (LPS), or partially purified (phosphocellulose column) type I isozyme from rat brain cerebellum, or partially purified isozyme III from bovine aortic endothelial cells (BAE cells)) were incubated for 20 minutes (3 minutes in the cases of purified enzyme preparations) at 25° C. in the presence of 10 μM L-[2,3-^3 H]arginine (55 Ci /mmol) (containing 34 nM (0.2 μCi)), 1 mM NADPH, and 2 Mm CaCl2 in a final volume of 100 μL. The reaction was stopped by adding 1 mL of stop buffer (2 mM EGTA, 2 mM EDTA 20 mM Hepes, pH 5.5). The total volume was then applied to a 1 mL Dowex AG 50 WX-8 column (Na^+ form, Bio-Rad) that had been pre-equilibrated with the stop buffer. L-[2,3-^3 H]Citrulline was eluted (2×) with 0.5 mL of stop buffer and radioactivity was determined by liquid scintillation counting.
(§3) The following Tables present data on the inhibition of [^3 H]-citrulline formation from [^3 H]-L-arginine by the compounds of the invention in various preparations representative of the isoforms of NOS, Types I, II, and III NOS as represented by rat brain cytosol, […] macrophage cell cytosol, and BAE homogenate preparation respectively.

The target in assay [2] is T2, Type II NOS (RAW macrophage cell cytosol) (Mus musculus, UniProt P29477).
T2 construct: cytosolic preparations from RAW 264.7 cells; endogenous in cells; host or cells: RAW 264.7 cells, LPS-induced for 16 hours
As to the kind of experiment: [3H]-Arginine to [3H]-Citrulline conversion, RAW cell cytosol (Type II NOS). In kind it is biochemical, murine. To be noted: LPS induced; for inhibition at 100 µM: read-out: Percent Inhibition of [3H]-Citrulline Formation, RAW Cell Cytosol; for IC50: read-out: Inhibition of [3H]-Citrulline Formation IC50, RAW Cell cytosol.
Source text: as §1, §2, §3

Assay [3] concerns the target T3, Type I NOS (rat brain cytosol) (Rattus norvegicus, UniProt P29476).
T3 construct: type I isozyme from rat brain cerebellum; from tissue; host or cells: rat brain (cytosol; cerebellum, phosphocellulose-purified)
As to the kind of experiment: [3H]-Arginine to [3H]-Citrulline conversion, rat brain cytosol (Type I NOS). To be noted: for inhibition at 100 µM: read-out: Percent Inhibition of [3H]-Citrulline Formation, Rat Brain Cytosol; for IC50: read-out: Inhibition of [3H]-Citrulline Formation IC50, Rat Brain Cytosol. Type of assay: biochemical.
Source text: as §1, §2, §3

Assay [4] has as its system RFL-6 rat fetal lung fibroblast cells. The experiment in a line: cGMP assay, RFL-6 cells as detectors of EDRF/NO. Type of assay: cell-based. To be noted: presence of superoxide dismutase; 6-well plates. An excerpt:
In those instances where it is suspected that the test substance is acting as a substrate rather than an inhibitor, the EDRF/NO may be estimated. For this confirmation bioassay, a method for quantification of endothelium-derived relaxing factor (EDRF) is utilized and is described in detail below. This technique, measuring cyclic GMP responses of RFL-6 rat fetal lung fibroblast cells to estimate NO or EDRF is sensitive, simple and quite useful for the evaluation of compounds that regulate EDRF/NO release from various endothelial cells, or other cells or tissues (such as for example RAW cells (induced with LPS) and N1E-115 cells). (cf. Ishii, K., et al., American Journal of Physiology, 1991,261:(2 pt 2) H598-603). The cyclic GMP measured is an indirect measure of the amount of EDRF/NO produced by NO synthase, so compounds that reduce the amount of cyclic GMP produced are termed inhibitors of NO synthase, and those that increase cyclic GMP in the absence of exogenous L-arginine are termed substrates or stimulators of NO synthase.
This is a new bioassay method for detection and quantification of endothelium-derived relaxing factor (EDRF) wherein cyclic GMP responses of RFL-6 rat fetal lung fibroblast cells are utilized to estimate the activity of nitric oxide (NO) and EDRF. […]

`CC(C)(C)OC(=O)N1[C@H](/C=C/CNC(=N)N)COC1(C)C` [Example 22, 3-(1,1-Dimethylethyl)-(R)-4-(3-guanidinopropen-1.E-yl)-2,2-dimethyl-3-oxazolidinecarboxylate]: the inhibition at 100 µM came out at 50% in assay [1], 97% in assay [2] and 70% in assay [3]. Also, the IC50 in assay [1] was 100 µM; in assay [2], less than 100 µM; in assay [3], 40 µM.
As to `N=C(N)NC/C(=C/[C@H](N)CO)Cc1ccccc1` [Example 25, N^G -Guanidinyl-4(S)-Amino-2-benzyl-pent-2,E-ene-5-ol], the inhibition at 100 µM was found to be 14% in assay [1], 20% in assay [2] and 80% in assay [3]. Besides, the figures for the IC50 in assay [1], in assay [2] and in assay [3] were more than 100 µM, more than 100 µM and 40 µM, respectively.
As for `CNC(=N)NC/C(C)=C/[C@H](N)CO` [Example 27, N^G -Methylguanidinyl-4(S)-Amino-2-methyl-pent-2,E-ene-5-ol], the inhibition at 100 µM in assay [1] turned out to be 46%; in assay [2] it was 97%; in assay [3], 86%. Further, the IC50 in assay [1] was more than 100 µM; in assay [2] it was 20 µM; in assay [3] it was 20 µM.
Take nitric oxide [NO]: the “lowest concentration of NO to which RFL-6 cells responded” value in assay [4] turned out to be 2 nM.
